In patent publication US8445480B2, “CETP inhibitors derived from benzoxazole arylamides” (Merck Sharp & Dohme Corp., priority 2007, dated 2013):

Target: T1, recombinant human CETP (Homo sapiens, UniProt P11597)
T1 construct: made in house; host or cells: CHO cells
T1 sequence (P11597 18-493): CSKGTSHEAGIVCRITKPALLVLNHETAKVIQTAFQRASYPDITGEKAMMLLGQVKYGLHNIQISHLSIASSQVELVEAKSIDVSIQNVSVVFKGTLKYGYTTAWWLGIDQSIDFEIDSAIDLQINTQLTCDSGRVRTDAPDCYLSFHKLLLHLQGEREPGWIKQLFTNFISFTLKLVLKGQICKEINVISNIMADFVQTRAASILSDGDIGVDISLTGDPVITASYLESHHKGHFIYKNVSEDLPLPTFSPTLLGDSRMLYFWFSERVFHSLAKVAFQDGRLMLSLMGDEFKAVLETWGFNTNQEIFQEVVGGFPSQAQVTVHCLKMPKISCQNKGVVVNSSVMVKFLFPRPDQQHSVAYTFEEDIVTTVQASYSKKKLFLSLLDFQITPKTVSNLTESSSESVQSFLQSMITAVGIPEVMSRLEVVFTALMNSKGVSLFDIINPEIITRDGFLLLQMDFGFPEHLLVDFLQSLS
Experiment: CETP assay, in vitro continuous fluorescence assay of CE transfer (BODIPY-CE donor particles)
Format: biochemical
Details: CE transfer reaction, 3% human serum, 25° C.; read-out: IC50 value as measured for the CE transfer reaction
Experimental: An in vitro continuous assay for determining IC50's to identify compounds that are CETP inhibitors was performed based on a modification of the method described by Epps et al. employing BODIPY®-CE as the cholesteryl ester lipid donor and BODIPY®-TG as the triglyceride lipid donor. See Epps et al. (1995) Method for measuring the activities of cholesteryl ester transfer protein (lipid transfer protein), Chem. Phys. Lipids. 77, 51-63.
Particles used in the assay were created from the following materials by probe sonication essentially as described by Epps et al. Synthetic cholesteryl ester (CE) donor HDL particles contained DOPC (Dioleoyl Phosphatidyl Choline), BODIPY®-CE (Molecular Probes C-3927), triolein (a triglyceride), dabcyl dicetylamide, (a non-diffusible quencher molecule to reduce background fluorescence) and apoHDL. Synthetic triglyceride (TG) donor HDL particles contained DOPC, BODIPY®-TG, and apoHDL. […] Particle concentrations were expressed in terms of protein concentration as determined by BCA assay (Pierce, USA). […]
Assays were performed in Dynex Microfluor 2 U-bottom black 96-well plates (Cat #7205). […] CE transfer reactions were performed as follows: final concentrations of materials were: 2.5 ng/μCE donor particles, 7.5 ng/μL acceptor particles (each expressed by protein content), 1×CETP buffer, 14-30 nM recombinant human CETP (expressed in CHO cells and partially purified), and up to 2% DMSO when testing compounds; reactions were followed in a fluorescence plate reader (Molecular Devices Spectramax GeminiXS) set for a 45 minute kinetic run at 25° C. which read the samples every 45 sec at Ex=480 nm, Em=511 nm, with a cutoff filter at 495 nm, photomultiplier tube setting of medium, calibration on, and 6 reads/well. […] TG transfer was measured at an excitation wavelength of 538 nm while reading emission at 568 nm every 45 sec for 45 min at 37° C. with a cutoff filter at 550 nm.
Data were evaluated by obtaining an initial rate, expressed in relative fluorescence units per second, for the pseudolinear portion of the curve, often 0-500 or 1000 sec. […]

CC(C)c1cc(C#N)cc2nc(-c3ccc(C(=O)NCC4CCN(Cc5cccc(C(F)(F)F)c5)CC4)cc3)oc12 [Example 58]
IC50: 13 to 60 nM

CC(C)c1cc(C#N)cc2nc(-c3ccc(C(=O)NCC4CCN(c5ccc(C(F)(F)F)cn5)CC4)cc3)oc12 [Example 3]
IC50: 13 to 60 nM

CC(C)c1cc(C#N)cc2nc(-c3ccc(C(=O)NCC4CCN(c5nccc(C(F)(F)F)n5)CC4)cc3)oc12 [Example 1, 4-(5-Cyano-7-isopropyl-1,3-benzoxazol-2-yl)-N-({1-[4-(trifluoromethyl)pyrimidin-2-yl]piperidin-4-yl}methyl)benzamide]
IC50: 13 to 60 nM
